The results in this text go back to patent publication US8039458B2, “HIV integrase inhibitors” (priority 2005, dated 2011).

The target of one data set is T1, HIV-Integrase (Human immunodeficiency virus type 1 group M subtype B, UniProt P12497).
T1 construct: Recombinant integrase (0.26 ng) was incubated with the beads
Briefly: HIV-Integrase binding assay (competition with [3H]-compound I, SPA). To be noted: competitive binding vs [3H]-compound I to purified integrase; Ki by Cheng and Prusoff; read-out: in vitro binding. On the procedure: HIV-Integrase Inhibition Activity. To evaluate in-vitro activity against HIV-integrase, 5 pmole of biotin labeled substrate DNA was bound to 100 μg of Streptavidin coated PVT SPA beads (Amersham Pharmacia Biotech). Recombinant integrase (0.26 ng) was incubated with the beads for 90 min at 37° C. Unbound enzyme was removed by washing the complex followed by addition of inhibitors and 0.1 fmol of P33 labeled target DNA. The reaction was stopped by adding EDTA to a final concentration of 10 mM. Samples were counted in TopCountNXT (Packard) and the CPM was used as a measure of integration. The reaction condition was as described in A. Engelman and R. Craigie, J. Virol. 69, 5908-5911 (1995). The sequences of substrate and target DNA were described in Nucleic Acid Research 22,1121-1122 (1994).
HIV-Integrase binding assay. In this assay competitive binding experiments with test compounds and a radiolabeled integrase inhibitor (compound I) are performed against purified integrase. SPA bead/DNA/enzyme complexes were prepared as for the integrase inhibition assay except, to each well, 0.69 μl of integrase enzyme ([…]) was used per 2 μl of LTR DNA-attached scintillation proximity beads (stock 50 mg/ml). Binding reactions were carried out in 96-well white polystyrene assay plates (Corning, #3600). The following was added sequentially to each well: 20 μl of water or 20 μl of human serum (Cellgro Cat# 35-060-CL), 5 μl of serially diluted compound (in 50% DMSO/50% integrase SPA buffer), 5 μl of [^3H]-compound I (6,000 cpm/μl in SPA buffer) and 20 μl of bead/DNA/enzyme complex. The plates were shaken for 2 hours and then allowed to sit at room temperature without shaking overnight. The [^3H]-compound I binding was measured using a Topcount scintillation counter. Cheng and Prusoff equations were used to convert the inhibition of compound 1 binding into the corresponding Ki value. Activity equal to A refers to a compound having Ki=0.001 to 0.003 μM while B and C denote compounds having Ki=0.003 to 0.05 μM and Ki≧0.050 μM respectively.

The subject of data set [1] is recombinant NL-Rluc virus. In words: Inhibition of HIV replication (NL-RLuc virus, Renilla luciferase). To be noted: Human immunodeficiency virus 1, read-out: antiviral actitively. The data set is classed as cell-based.

In general, melting point refers to the temperature of the solid-liquid transition.

Structures are written as SMILES.

As for `CCc1ncnn1-c1cc(F)ccc1CNC(=O)c1nc2n(c(=O)c1O)CCOCC21CCCC1` [Example 22, N-((2-(5-ethyl-1H-1,2,4-triazol-1-yl)-4-fluorophenyl)methyl)-3′-hydroxy-4′-oxo-6′,7′-dihydro-4′H-spiro[cyclopentane-1,10′-pyrimido[1,2-d][1,4]oxazepine]-2′-carboxamide], on HIV-Integrase, the Ki fell in the range of 3 to 50 nM. Moreover, in data set [1], the EC50 was 1 to 10 nM.
The corresponding values for `Cc1ncnn1-c1cc(F)ccc1CNC(=O)c1nc2n(c(=O)c1O)CCOCC21CCCC1` [Example 23, N-((4-fluoro-2-(5-methyl-1H-1,2,4-triazol-1-yl)phenyl)methyl)-3′-hydroxy-4′-oxo-6′,7′-dihydro-4′H-spiro[cyclopentane-1,10′-pyrimido[1,2-d][1,4]oxazepine]-2′-carboxamide] are 1 to 3 nM and 1 to 10 nM.
The corresponding values for `Cc1nc(C)n(-c2cc(F)ccc2CNC(=O)c2nc3n(c(=O)c2O)CCOCC32CCCC2)n1` [Example 24, N-((2-(3,5-dimethyl-1H-1,2,4-triazol-1-yl)-4-fluorophenyl)methyl)-3′-hydroxy-4′-oxo-6′,7′-dihydro-4′H-spiro[cyclopentane-1,10′-pyrimido[1,2-d][1,4]oxazepine]-2′-carboxamide] are 3 to 50 nM and 1 to 10 nM.
The corresponding values for `O=C(NCc1ccc(F)cc1-n1cnc(CO)n1)c1nc2n(c(=O)c1O)CCOCC21CCOCC1` [Example 25, N-((4-fluoro-2-(3-(hydroxymethyl)-1H-1,2,4-triazol-1-yl)phenyl)methyl)-3′-hydroxy-4′-oxo-2,3,5,6,6′,7′-hexahydro-4′H-spiro[pyran-4,10′-pyrimido[1,2-d][1,4]oxazepine]-2′-carboxamide] are 3 to 50 nM and more than 50 nM.
For the compound `COCc1ncn(-c2cc(F)ccc2CNC(=O)c2nc3n(c(=O)c2O)CCOCC32CCOCC2)n1` [Example 26, N-((4-fluoro-2-(3-((methyloxy)methyl)-1H-1,2,4-triazol-1-yl)phenyl)methyl)-3′-hydroxy-4′-oxo-2,3,5,6,6′,7′-hexahydro-4′H-spiro[pyran-4,10′-pyrimido[1,2-d][1,4]oxazepine]-2′-carboxamide], on HIV-Integrase, the Ki was in the range of 3 to 50 nM. Also, the EC50 in data set [1] was in the range of 10 to 50 nM.
Taken in the same sequence, the figures for `Cn1cnn(-c2cc(F)ccc2CNC(=O)c2nc3n(c(=O)c2O)CCOCC32CCOCC2)c1=O` [Example 27, N-(4-Fluoro-2-(4-methyl-5-oxo-4,5-dihydro-1H-1,2,4-triazol-1-yl)benzyl)-3′-hydroxy-4′-oxo-2,3,4′,5,6,6′,7′,9′-octahydrospiro[pyran-4,10′-pyrimido[1,2-d][1,4]oxazepine]-2′-carboxamide] were 3 to 50 nM and 1 to 10 nM.
Take `Cc1nn(-c2cc(F)ccc2CNC(=O)c2nc3n(c(=O)c2O)CCOCC32CCOCC2)c(=O)n1C` [Example 28, N-(2-(3,4-dimethyl-5-oxo-4,5-dihydro-1H-1,2,4-triazol-1-yl)-4-fluorobenzyl)-3′-hydroxy-4′-oxo-2,3,4′,5,6,6′,7′,9′-octahydrospiro[pyran-4,10′-pyrimido[1,2-d][1,4]oxazepine]-2′-carboxamide]: on HIV-Integrase, the Ki lay within 3 to 50 nM. Moreover, in data set [1], the EC50 is 1 to 10 nM.
Regarding `O=C(NCc1ccc(F)cc1)c1nc2n(c(=O)c1O)CCOCC2` [Example 31, N-((4-fluorophenyl)methyl)-3-hydroxy-4-oxo-6,7,9,10-tetrahydro-4H-pyrimido[1,2-d][1,4]oxazepine-2-carboxamide], the melting point lay within 197 to 199 °C. The Ki at HIV-Integrase is 3 to 50 nM. The EC50 in data set [1] is more than 50 nM.
Consider `O=C(NCc1ccc(F)cc1)c1nc2n(c(=O)c1O)CCOCC21CCOCC1` [Example 32, N-((4-fluorophenyl)methyl)-3′-hydroxy-4′-oxo-2,3,5,6,6′,7′-hexahydro-4′H-spiro[pyran-4,10′-pyrimido[1,2-d][1,4]oxazepine]-2′-carboxamide], for which, at HIV-Integrase, the Ki lay within 3 to 50 nM. For the same compound, the EC50 in data set [1] lay within 10 to 50 nM.
The corresponding values for `CNC(=O)c1cc(F)ccc1CNC(=O)c1nc2n(c(=O)c1O)CCOCC21CCOCC1` [Example 33, N-((4-fluoro-2-((methylamino)carbonyl)phenyl)methyl)-3′-hydroxy-4′-oxo-2,3,5,6,6′,7′-hexahydro-4′H-spiro[pyran-4,10′-pyrimido[1,2-d][1,4]oxazepine]-2′-carboxamide] are 3 to 50 nM and 1 to 10 nM.
Taken in the same sequence, the figures for `O=C(NCc1ccc(F)cc1-n1cncn1)c1nc2n(c(=O)c1O)CCOCC21CCOCC1` [Example 34, N-((4-fluoro-2-(1H-1,2,4-triazol-1-yl)phenyl)methyl)-3′-hydroxy-4′-oxo-2,3,5,6,6′,7′-hexahydro-4′H-spiro[pyran-4,10′-pyrimido[1,2-d][1,4]oxazepine]-2′-carboxamide] were 1 to 3 nM and 1 to 10 nM.
The corresponding values for `Cc1ncn(-c2cc(F)ccc2CNC(=O)c2nc3n(c(=O)c2O)CCOCC32CCOCC2)n1` [Example 35, N-((4-fluoro-2-(3-methyl-1H-1,2,4-triazol-1-yl)phenyl)methyl)-3′-hydroxy-4′-oxo-2,3,5,6,6′,7′-hexahydro-4′H-spiro[pyran-4,10′-pyrimido[1,2-d][1,4]oxazepine]-2′-carboxamide] are 3 to 50 nM and 1 to 10 nM.
In the case of `Cc1ncnn1-c1cc(F)ccc1CNC(=O)c1nc2n(c(=O)c1O)CCOCC21CCOCC1` [Example 36, N-((4-fluoro-2-(5-methyl-1H-1,2,4-triazol-1-yl)phenyl)methyl)-3′-hydroxy-4′-oxo-2,3,5,6,6′,7′-hexahydro-4′H-spiro[pyran-4,10′-pyrimido[1,2-d][1,4]oxazepine]-2′-carboxamide], at HIV-Integrase, the Ki lay in the range of 3 to 50 nM. The EC50 in data set [1] lay within 1 to 10 nM.
On to `Cc1cnnn1-c1cc(F)ccc1CNC(=O)c1nc2n(c(=O)c1O)CCOCC21CCOCC1` [Example 37, N-((4-fluoro-2-(5-methyl-1H-1,2,3-triazol-1-yl)phenyl)methyl)-3′-hydroxy-4′-oxo-2,3,5,6,6′,7′-hexahydro-4′H-spiro[pyran-4,10′-pyrimido[1,2-d][1,4]oxazepine]-2′-carboxamide], for which the Ki on HIV-Integrase was 3 to 50 nM. The EC50 in data set [1] lay within 10 to 50 nM.
Taken in the same sequence, the figures for `CN1CCN(c2cc(F)ccc2CNC(=O)c2nc3n(c(=O)c2O)CCOCC32CCOCC2)C1=O` [Example 38, N-((4-fluoro-2-(3-methyl-2-oxo-1-imidazolidinyl)phenyl)methyl)-3′-hydroxy-4′-oxo-2,3,5,6,6′,7′-hexahydro-4′H-spiro[pyran-4,10′-pyrimido[1,2-d][1,4]oxazepine]-2′-carboxamide] were 3 to 50 nM and 1 to 10 nM.
The corresponding values for `O=C(NCc1ccc(F)cc1-n1ncnc1CF)c1nc2n(c(=O)c1O)CCOCC21CCOCC1` [Example 39, N-((4-fluoro-2-(5-(fluoromethyl)-1H-1,2,4-triazol-1-yl)phenyl)methyl)-3′-hydroxy-4′-oxo-2,3,5,6,6′,7′-hexahydro-4′H-spiro[pyran-4,10′-pyrimido[1,2-d][1,4]oxazepine]-2′-carboxamide] are 3 to 50 nM and 1 to 10 nM.
For `Cn1ncnc1-c1cc(F)ccc1CNC(=O)c1nc2n(c(=O)c1O)CCOCC21CCOCC1` [Example 40, N-((4-fluoro-2-(1-methyl-1H-1,2,4-triazol-5-yl)phenyl)methyl)-3′-hydroxy-4′-oxo-2,3,5,6,6′,7′-hexahydro-4′H-spiro[pyran-4,10′-pyrimido[1,2-d][1,4]oxazepine]-2′-carboxamide], at HIV-Integrase, the Ki lay within 3 to 50 nM. In addition, in data set [1], the EC50 was in the range of 1 to 10 nM.
The corresponding values for `Cc1nc(-c2cc(F)ccc2CNC(=O)c2nc3n(c(=O)c2O)CCOCC32CCOCC2)n(C)n1` [Example 41, N-((2-(1,3-dimethyl-1H-1,2,4-triazol-5-yl)-4-fluorophenyl)methyl)-3′-hydroxy-4′-oxo-2,3,5,6,6′,7′-hexahydro-4′H-spiro[pyran-4,10′-pyrimido[1,2-d][1,4]oxazepine]-2′-carboxamide] are 3 to 50 nM and 10 to 50 nM.
Consider `Cc1n[nH]c(-c2cc(F)ccc2CNC(=O)c2nc3n(c(=O)c2O)CCOCC32CCOCC2)n1` [Example 42, N-((4-fluoro-2-(3-methyl-1H-1,2,4-triazol-5-yl)phenyl)methyl)-3′-hydroxy-4′-oxo-2,3,5,6,6′,7′-hexahydro-4′H-spiro[pyran-4,10′-pyrimido[1,2-d][1,4]oxazepine]-2′-carboxamide], for which the Ki at HIV-Integrase fell in the range of 1 to 3 nM. In addition, the EC50 in data set [1] was in the range of 1 to 10 nM.
